Source: patent publication US20120178646A1, “HIGH THROUGHPUT METHOD AND SYSTEM FOR IN VIVO SCREENING” (ZF SCREENS B.V., priority 2009, published 2012)

Tested on: Mycobacterium marinum strain E11
Test: Granuloma formation in zebrafish larvae after intrayolk injection with Mycobacterium marinum (COPAS XL fluorescence profiling)
Assay type: in vivo
Conditions: zebrafish embryos injected intrayolk at 16- to 256-cell stage, refreshed daily, screened at 5 dpi, confirmed by stereo fluorescence microscopy

Structure (SMILES)	presence of CherryFP-labeled granulomas in larvae (exposed from 2 dpi to 10 μM in 0.5% DMSO)	presence of CherryFP-labeled granulomas in larvae (exposed from 2 dpi to 2 mM in water)
O=S(=O)(NCCNC/C=C/c1ccc(Br)cc1)c1cccc2cnccc12 [H89]	did not contain granulomas	
CC[C@@H](CO)NCCN[C@@H](CC)CO [ethambutol]		did not contain granulomas
